Laboratory results from publication PMC11040352, “CD38‐Specific Gallium‐68 Labeled Peptide Radiotracer Enables Pharmacodynamic Monitoring in Multiple Myeloma with PET” (Advanced Science, 2024).
Like-named read-outs stand apart in the source and are kept apart here.

How the values were obtained:
[1] = Ex vivo biodistribution in mice with RPMI tumor xenografts; conditions: both sexes, NSG, mouse, 60 min p.i., RPMI xenograft mice; for tissue uptake at 1 h: 50 µCi; for tissue to tissue ratio at 1 h: 50 uCi, total radioactivity
Description: (§1) Animal studies were performed under Johns Hopkins University Animal Care and Use Committee (ACUC‐approved protocol (Principal investigator: Sridhar Nimmagadda, Ph.D. and Protocol number M021M175). Male and female NSG mice (5‐6 weeks old) were used to establish xenografts by administering 3 million cells (50% Corning Matrigel) subcutaneously to form various tumor models within 3–4 weeks. Imaging or biodistribution studies (n = 3–5) were conducted on mice with tumor volumes of 100–200 mm^3. Disseminated tumor models were developed by injecting 4–5 million cells in saline intravenously for MOLP8 and MM1S‐Luc models (n = 4–5). Luciferase expressing MM1S cell line (MM1S‐Luc) was used to monitor cancer cell dissemination in the body. Tumor establishment was confirmed by injecting D‐Luciferin intraperitoneally (150 mg kg^−1) and imaged mice after 10 min in IVIS bioluminescence imaging system. Bone marrow tumors were ready for imaging after 25–30 d of implantation.
(§2) Mice with 100–200 mm^3 tumor volume were used for ex vivo biodistribution studies. For radiotracer pharmacokinetics studies, mice with MOLP8 tumor xenografts received ≈80 µCi (2.96 MBq) [^68Ga]Ga‐AJ206 and were sacrificed at pre‐determined time points (5, 30, 60 and 120 min). Similarly, for dosimetry study, mice with MM1S tumor xenografts received ≈80 µCi (2.96 MBq) of [^68Ga]Ga‐AJ206 and were sacrificed at pre‐determined time points (5, 30, 60, 90 and 120 min). All other mice were injected with ≈50µCi (1.85 MBq) [^68Ga]Ga‐AJ206 and were sacrificed at 60 min. The selected tissues were collected, weighed, counted, and their %ID g^−1 values calculated for biodistribution analysis. The tissues included blood, muscle, tumor, thymus, heart, lung, liver, pancreas, stomach, small intestine, large intestine, spleen, adrenals, kidney, bladder, femur, and brain.

[2] = Ex vivo biodistribution in mice with MM1S tumor xenografts; conditions: both sexes, NSG, mouse; for tissue uptake at 5 min: 5 min p.i.; for tissue uptake at 0.5 h: 30 min p.i.; for tissue uptake at 1 h: 60 min p.i.; for tissue uptake at 1.5 h: 90 min p.i.; for tissue uptake at 2 h: 120 min p.i.
Description: as §1, §2

[3] = adrenals, 80 µCi, MM1S xenograft mice, read-out: uptake in adrenals
[4] = bladder, 80 µCi, MM1S xenograft mice, read-out: uptake in bladder
[5] = blood, 80 µCi, total radioactivity, MM1S xenograft mice, read-out: uptake in blood
[6] = brain, 80 µCi, MM1S xenograft mice, read-out: uptake in brain
[7] = femur, 80 µCi, MM1S xenograft mice, read-out: uptake in femur
[8] = heart, 80 µCi, total radioactivity, MM1S xenograft mice, read-out: uptake in heart
[9] = kidney, 80 µCi, MM1S xenograft mice, read-out: uptake in kidney
[10] = large intestine (with contents), 80 µCi, MM1S xenograft mice, read-out: uptake in large intestine (with contents)

CC[C@H](C)[C@@H]1NC(=O)[C@@H]2CCCN2C(=O)[C@H](Cc2ccccc2)NC(=O)[C@H](CC(=O)O)NC(=O)[C@H](C)NC(=O)[C@@H]2CSCc3cc(cc(c3)CSC[C@H](NC(=O)[C@H](C)NC(=O)CCOCCOCCOCCNC(=O)CN3CCN(CC(=O)O)CCN(CC(=O)O)CC3)C(=O)N[C@@H](C(C)C)C(=O)N3CCC[C@H]3C(=O)N2)CSC[C@@H](C(N)=O)NC(=O)[C@H](Cc2ccc(O)cc2)NC(=O)[C@H](Cc2c[nH]c3ccccc23)NC1=O [[^68Ga]Ga‐AJ206, metal not drawn]
tissue uptake at 1 h ([1]; blood, read-out: uptake in blood): 0.98 ± 0.48 %ID/g
tissue uptake at 1 h ([1]; heart, read-out: uptake in heart): 0.63 ± 0.21 %ID/g
tissue uptake at 1 h ([1]; kidney, read-out: uptake in kidney): 17.8 ± 3.48 %ID/g
tissue uptake at 1 h ([1]; liver, read-out: uptake in liver): 1.27 ± 0.3 %ID/g
tissue uptake at 1 h ([1]; lung, read-out: uptake in lung): 1 ± 0.26 %ID/g
tissue uptake at 1 h ([1]; muscle, read-out: uptake in muscle): 0.49 ± 0.07 %ID/g
tissue uptake at 1 h ([1]; pancreas, read-out: uptake in pancreas): 0.48 ± 0.15 %ID/g
tissue uptake at 1 h ([1]; small intestine, read-out: uptake in small intestine): 0.59 ± 0.25 %ID/g
tissue uptake at 1 h ([1]; spleen, read-out: uptake in spleen): 1.09 ± 0.15 %ID/g
tissue uptake at 1 h ([1]; stomach, read-out: uptake in stomach): 0.45 ± 0.07 %ID/g
tissue uptake at 1 h ([1]; tumor, read-out: uptake in tumor): 1.78 ± 0.36 %ID/g
tissue to tissue ratio at 1 h ([1]; tumor/blood, read-out: Tumor/Blood ratio): 2.69 ± 0.65
tissue to tissue ratio at 1 h ([1]; tumor/muscle, read-out: Tumor/Muscle ratio): 3.72 ± 0.73
tissue uptake at 5 min [2, 3]: 5.07 ± 0.11 %ID/g
tissue uptake at 0.5 h [2, 3]: 2.08 ± 0.38 %ID/g
tissue uptake at 1 h [2, 3]: 0.59 ± 0.06 %ID/g
tissue uptake at 1.5 h [2, 3]: 0.44 ± 0.1 %ID/g
tissue uptake at 2 h [2, 3]: 0.57 ± 0.14 %ID/g
tissue uptake at 5 min [2, 4]: 9.35 ± 1.87 %ID/g
tissue uptake at 0.5 h [2, 4]: 4.51 ± 0.93 %ID/g
tissue uptake at 1 h [2, 4]: 0.75 ± 0.08 %ID/g
tissue uptake at 1.5 h [2, 4]: 1.23 ± 0.1 %ID/g
tissue uptake at 2 h [2, 4]: 0.9 ± 0.37 %ID/g
tissue uptake at 1 h ([2]; blood, 2 mg/kg, MM1S xenograft mice with blocking dose (2 mg kg^−1 AJ206), read-out: uptake in blood): 2.17 ± 1.17 %ID/g
tissue uptake at 2 h ([2]; blood, 80 µCi, MM1S xenograft mice, read-out: uptake in blood): 0.33 ± 0.07 %ID/g
tissue uptake at 5 min [2, 5]: 20.7 ± 1.68 %ID/g
tissue uptake at 0.5 h [2, 5]: 2.95 ± 0.37 %ID/g
tissue uptake at 1 h [2, 5]: 0.75 ± 0.29 %ID/g
tissue uptake at 1.5 h [2, 5]: 0.75 ± 0.24 %ID/g
tissue uptake at 5 min [2, 6]: 0.44 ± 0.07 %ID/g
tissue uptake at 0.5 h [2, 6]: 0.21 ± 0.12 %ID/g
tissue uptake at 1 h [2, 6]: 0.06 ± 0.03 %ID/g
tissue uptake at 1.5 h [2, 6]: 0.03 ± 0.01 %ID/g
tissue uptake at 2 h [2, 6]: 0.02 ± 0.01 %ID/g
tissue uptake at 1 h ([2]; femur, 2 mg/kg, MM1S xenograft mice with blocking dose (2 mg kg^−1 AJ206), read-out: uptake in femur): 0.25 ± 0.09 %ID/g
tissue uptake at 5 min [2, 7]: 3.37 ± 0.31 %ID/g
tissue uptake at 0.5 h [2, 7]: 0.86 ± 0.06 %ID/g
tissue uptake at 1 h [2, 7]: 0.33 ± 0.12 %ID/g
tissue uptake at 1.5 h [2, 7]: 0.28 ± 0.05 %ID/g
tissue uptake at 2 h [2, 7]: 0.09 ± 0.02 %ID/g
tissue uptake at 1 h ([2]; heart, 2 mg/kg, MM1S xenograft mice with blocking dose (2 mg kg^−1 AJ206), read-out: uptake in heart): 0.33 ± 0.03 %ID/g
tissue uptake at 5 min [2, 8]: 6.38 ± 0.42 %ID/g
tissue uptake at 0.5 h [2, 8]: 1 ± 0.15 %ID/g
tissue uptake at 1 h [2, 8]: 0.29 ± 0.03 %ID/g
tissue uptake at 1.5 h [2, 8]: 0.35 ± 0.08 %ID/g
tissue uptake at 2 h [2, 8]: 0.16 ± 0.01 %ID/g
tissue uptake at 1 h ([2]; kidney, 2 mg/kg, MM1S xenograft mice with blocking dose (2 mg kg^−1 AJ206), read-out: uptake in kidney): 15.9 ± 1.12 %ID/g
tissue uptake at 5 min [2, 9]: 31.5 ± 4.15 %ID/g
tissue uptake at 0.5 h [2, 9]: 21.6 ± 2.02 %ID/g
tissue uptake at 1 h [2, 9]: 14.1 ± 0.57 %ID/g
tissue uptake at 1.5 h [2, 9]: 13.2 ± 1.59 %ID/g
tissue uptake at 2 h [2, 9]: 9.39 ± 1.5 %ID/g
tissue uptake at 5 min [2, 10]: 3.11 ± 0.38 %ID/g
tissue uptake at 0.5 h [2, 10]: 0.75 ± 0.04 %ID/g
tissue uptake at 1 h [2, 10]: 0.29 ± 0.03 %ID/g
tissue uptake at 1.5 h [2, 10]: 0.27 ± 0.05 %ID/g
tissue uptake at 2 h [2, 10]: 0.27 ± 0.19 %ID/g
tissue uptake at 1 h ([2]; liver, 2 mg/kg, MM1S xenograft mice with blocking dose (2 mg kg^−1 AJ206), read-out: uptake in liver): 1.45 ± 0.26 %ID/g
tissue uptake at 5 min ([2]; liver, 80 µCi, total radioactivity, MM1S xenograft mice, read-out: uptake in liver): 30.3 ± 3.51 %ID/g
